Source: article PMC12395308 (ACS Central Science, 2025)

Legend:
[1] = Bioconversion of prodrugs in plasma, ex vivo (mice); conditions: 200 μg/mL; for eAUC20m–20h in mice plasma, prodrug: 20 h ex vivo incubation; for % of prodrug remaining at 20 h, mice plasma: 37 °C, ex vivo
[2] = In vivo plasma exposure after repetitive single oral dosing for 10 consecutive days; conditions: 10th dose, oral, molar equivalent of 10 mg/kg INH
[3] = Bioconversion of prodrugs in plasma, ex vivo (human); conditions: 200 μg/mL; for eAUC20m–20h in human plasma, prodrug: 20 h ex vivo incubation; for % of prodrug remaining at 20 h, human plasma: 37 °C, ex vivo
[4] = Aqueous solubility in Tris HCl buffer (pH 7.4), shake flask method; conditions: 37 °C, pH 7.4, aqueous buffer, thermodynamic from solid
[5] = Lipophilicity (logD) by shake flask method
[6] = Chemical stability in neat DMSO (UV spectrophotometer); conditions: post 24 h of incubation
[7] = Aqueous stability in acidic and basic buffer (HPLC); conditions: post 24 h of incubation; for chemical stability, pH (7.6): percentage of parent remaining: basic buffer; for chemical stability, pH (3.0): percentage of parent remaining: acidic buffer
[8] = In vivo plasma exposure after a single oral dose (RACE-PK); conditions: single oral dose 10 mg/kg; for plasma eAUC20m–120m (AcINH) / plasma eAUC20m–120m (INH): n=3
[9] = Stomach homogenate conversion assay; type: in vitro ADME, mice; conditions: 50 μg/mL; for percentage of prodrug remaining after 20 h of incubation, stomach homogenate: ex vivo
[10] = Intestinal homogenate conversion assay; type: in vitro ADME, mice; conditions: 50 μg/mL; for percentage of prodrug remaining after 20 h of incubation, intestine homogenate: ex vivo
[11] = Complete pharmacokinetic analysis after a single oral dose; conditions: for concentration at 0.33 h / concentration at 1 h / concentration at 2 h / concentration at 4 h / concentration at 6 h / concentration at 24 h: Balb/C, mouse, plasma, po, 10 mg/kg of INH (prodrugs at molar equivalent); for plasma concentration of free INH (mean) / plasma concentration of released AcINH (mean) / plasma concentration of released INA (mean) / Vd, unchanged prodrug / plasma level of AcHz formed in vivo: single oral dose; for Vd, unchanged prodrug: molar equivalent of 10 mg/kg INH; for plasma level of AcHz formed in vivo: all time points 0.083–24 h

SMILES: CCCOC(=O)NNC(=O)c1ccncc1.Cl [prodrug 1c]
- eAUC20m–20h in mice plasma, prodrug [1]: 551 ± 81 ng·h/mL
- eAUC20m–6h (AcHz) [2]: BLQ ^d
- eAUC20m–20h in human plasma, prodrug [3]: 860 ± 131 ng·h/mL
- solubility at 24 h ([4]; Tris HCl buffer): 86 mg/mL
- logD [5]: 0.2
- chemical stability, DMSO: percentage of parent remaining [6]: 100.0%
- chemical stability, pH (7.6): percentage of parent remaining [7]: 100.0%
- plasma concentration of AcINH at 20 min [8]: BLQ
- plasma concentration of in vivo released free INH at 20 min [8]: BLQ
- plasma eAUC20m–120m (AcINH) [8]: BLQ ^d
- plasma eAUC20m–120m (INH) ([8]; 10 mg/kg): BLQ and BLQ ^d

SMILES: CCC(C)OC(=O)NNC(=O)c1ccncc1.Cl (stereo not shown) [prodrug 1i]
- % of prodrug remaining at 20 h, mice plasma [1]: 63.8%
- eAUC20m–20h in mice plasma, prodrug [1]: 1486 ± 35 ng·h/mL
- % of prodrug remaining at 20 h, human plasma [3]: 89.1%
- eAUC20m–20h in human plasma, prodrug [3]: 2788 ± 217 ng·h/mL
- solubility at 24 h ([4]; Tris HCl buffer): 111 mg/mL
- logD [5]: 0.8
- chemical stability, DMSO: percentage of parent remaining [6]: 100.0%
- chemical stability, pH (3.0): percentage of parent remaining [7]: 100.0%
- chemical stability, pH (7.6): percentage of parent remaining [7]: 98.3%
- plasma concentration of AcINH at 20 min [8]: BLQ
- plasma eAUC20m–120m (AcINH) ([8]; 10 mg/kg): BLQ and below the limit of quantification and BLQ ^d

SMILES: Cl.O=C(NNC(=O)c1ccncc1)Oc1ccccc1 [prodrug 1j]
- % of prodrug remaining at 20 h, mice plasma [1]: 85.5%
- eAUC20m–20h in mice plasma, prodrug [1]: 7347 ± 655 ng·h/mL
- % of prodrug remaining at 20 h, human plasma [3]: below the quantification limit and BLQ
- eAUC20m–20h in human plasma, prodrug [3]: 752 ± 355 ng·h/mL
- solubility at 24 h [4]: 12.4 mg/mL
- logD [5]: 0.9
- chemical stability, DMSO: percentage of parent remaining [6]: 100.0%
- chemical stability, pH (3.0): percentage of parent remaining [7]: 94.6%
- chemical stability, pH (7.6): percentage of parent remaining [7]: 58.2%
- plasma concentration of AcINH at 20 min [8]: BLQ
- plasma eAUC20m–120m (AcINH) [8]: BLQ ^d

SMILES: CC(C)COC(=O)NNC(=O)c1ccncc1.Cl [prodrug 1f]
- % of prodrug remaining at 20 h, mice plasma [1]: 13.2%
- eAUC20m–20h in mice plasma, prodrug [1]: 382 ± 302 ng·h/mL
- eAUC20m–6h (AcHz) [2]: BLQ ^d
- eAUC20m–20h in human plasma, prodrug [3]: 854 ± 615 ng·h/mL
- solubility at 24 h ([4]; Tris HCl buffer): 29.3 mg/mL
- logD [5]: 0.9
- chemical stability, DMSO: percentage of parent remaining [6]: 100.0%
- chemical stability, pH (3.0): percentage of parent remaining [7]: 98.17%
- chemical stability, pH (7.6): percentage of parent remaining [7]: 100.0%

SMILES: COC(=O)NNC(=O)c1ccncc1.Cl [prodrug 1a]
- % of prodrug remaining at 20 h, mice plasma [1]: 70.5%
- eAUC20m–20h in mice plasma, prodrug [1]: 1650 ± 930 ng·h/mL
- eAUC20m–6h (AcHz) [2]: BLQ ^d
- % of prodrug remaining at 20 h, human plasma [3]: 40.1%
- eAUC20m–20h in human plasma, prodrug [3]: 1418 ± 824 ng·h/mL
- eAUC0–20h in stomach homogenate, prodrug [9]: 412,453 ng·h/mL
- percentage of prodrug remaining after 20 h of incubation, stomach homogenate [9]: 1%
- solubility at 24 h ([4]; Tris HCl buffer): 213 mg/mL
- logD [5]: -0.2
- chemical stability, DMSO: percentage of parent remaining [6]: 100.0%
- chemical stability, pH (3.0): percentage of parent remaining [7]: 100.0%
- chemical stability, pH (7.6): percentage of parent remaining [7]: 100.0%
- eAUC0–20h in intestinal homogenate, prodrug [10]: 908,764 ng·h/mL
- percentage of prodrug remaining after 20 h of incubation, intestine homogenate [10]: 85%
- concentration at 0.33 h [11]: 148000 ng/mL
- concentration at 1 h [11]: 63200 ng/mL
- concentration at 2 h [11]: 31400 ng/mL
- concentration at 4 h [11]: 1400 ng/mL
- concentration at 6 h [11]: 571 ng/mL
- concentration at 24 h [11]: 208 ng/mL
- plasma concentration of free INH (mean) ([11]; 1 h): BLQ
- plasma concentration of released AcINH (mean) ([11]; 1 h): BLQ
- plasma concentration of free INH (mean) ([11]; 2 h): BLQ
- plasma concentration of released AcINH (mean) ([11]; 2 h): BLQ
- plasma concentration of free INH (mean) ([11]; 4 h): BLQ
- plasma concentration of released AcINH (mean) ([11]; 4 h): BLQ
- plasma concentration of released INA (mean) ([11]; 4 h): BLQ
- plasma concentration of free INH (mean) ([11]; 6 h): BLQ
- plasma concentration of released AcINH (mean) ([11]; 6 h): BLQ
- plasma concentration of released INA (mean) ([11]; 6 h): BLQ
- plasma concentration of free INH (mean) ([11]; 24 h): BLQ
- plasma concentration of released AcINH (mean) ([11]; 24 h): BLQ
- plasma concentration of released INA (mean) ([11]; 24 h): BLQ
- Vd, unchanged prodrug [11]: 0.077 ± 0.004 L/kg
- plasma level of AcHz formed in vivo [11]: BLQ
- plasma concentration of AcINH at 20 min [8]: BLQ
- plasma concentration of in vivo released free INH at 20 min [8]: BLQ
- plasma eAUC20m–120m (AcINH) [8]: BLQ ^d
- plasma eAUC20m–120m (INH) [8]: BLQ ^d

SMILES: CCCCOC(=O)NNC(=O)c1ccncc1.Cl [prodrug 1e]
- eAUC20m–20h in mice plasma, prodrug [1]: 180 ± 36 ng·h/mL
- eAUC20m–6h (AcHz) [2]: BLQ ^d
- eAUC20m–20h in human plasma, prodrug [3]: 640 ± 116 ng·h/mL
- solubility at 24 h ([4]; Tris HCl buffer): 49.4 mg/mL
- logD [5]: 0.8
- chemical stability, DMSO: percentage of parent remaining [6]: 100.0%
- chemical stability, pH (3.0): percentage of parent remaining [7]: 100.0%
- chemical stability, pH (7.6): percentage of parent remaining [7]: 100.0%

SMILES: Cl.O=C(NNC(=O)c1ccncc1)OCc1ccccc1 [prodrug 1h]
- eAUC20m–20h in mice plasma, prodrug [1]: 87 ± 85 ng·h/mL
- eAUC20m–6h (AcHz) [2]: BLQ ^d
- eAUC20m–20h in human plasma, prodrug [3]: 465 ± 426 ng·h/mL
- eAUC0–20h in stomach homogenate, prodrug [9]: 691,560 ng·h/mL
- percentage of prodrug remaining after 20 h of incubation, stomach homogenate [9]: 29%
- solubility at 24 h ([4]; Tris HCl buffer): 0.4 mg/mL
- logD [5]: 1.1
- chemical stability, DMSO: percentage of parent remaining [6]: 100.0%
- chemical stability, pH (3.0): percentage of parent remaining [7]: 100.0%
- chemical stability, pH (7.6): percentage of parent remaining [7]: 100.0%
- eAUC0–20h in intestinal homogenate, prodrug [10]: 761,596 ng·h/mL
- percentage of prodrug remaining after 20 h of incubation, intestine homogenate [10]: 43%
- concentration at 0.33 h [11]: 6130 ng/mL
- concentration at 1 h [11]: 433 ng/mL
- concentration at 2 h [11]: 409 ng/mL
- concentration at 4 h [11]: 884 ng/mL
- concentration at 6 h [11]: 128 ng/mL
- concentration at 24 h [11]: 120 ng/mL
- plasma concentration of free INH (mean) ([11]; 4 h): BLQ
- plasma concentration of released AcINH (mean) ([11]; 4 h): BLQ
- plasma concentration of released INA (mean) ([11]; 4 h): BLQ
- plasma concentration of free INH (mean) ([11]; 6 h): BLQ
- plasma concentration of released AcINH (mean) ([11]; 6 h): BLQ
- plasma concentration of released INA (mean) ([11]; 6 h): BLQ
- plasma concentration of free INH (mean) ([11]; 24 h): BLQ
- plasma concentration of released AcINH (mean) ([11]; 24 h): BLQ
- plasma concentration of released INA (mean) ([11]; 24 h): BLQ
- Vd, unchanged prodrug [11]: 2.899 ± 0.3 L/kg
- plasma level of AcHz formed in vivo [11]: BLQ

SMILES: C=CCOC(=O)NNC(=O)c1ccncc1.Cl [prodrug 1g]
- % of prodrug remaining at 20 h, mice plasma [1]: highly labile and BLQ
- eAUC20m–20h in mice plasma, prodrug [1]: 168 ± 91 ng·h/mL
- eAUC20m–6h (AcHz) [2]: BLQ ^d
- % of prodrug remaining at 20 h, human plasma [3]: significant lability and BLQ
- eAUC20m–20h in human plasma, prodrug [3]: 530 ± 316 ng·h/mL
- solubility at 24 h ([4]; Tris HCl buffer): 402 mg/mL
- logD [5]: 0.2
- chemical stability, DMSO: percentage of parent remaining [6]: 100.0%
- chemical stability, pH (3.0): percentage of parent remaining [7]: 96.9%
- chemical stability, pH (7.6): percentage of parent remaining [7]: 100.0%

SMILES: CCOC(=O)NNC(=O)c1ccncc1.Cl [prodrug 1b]
- % of prodrug remaining at 20 h, mice plasma [1]: 13.8%
- eAUC20m–20h in mice plasma, prodrug [1]: 1214 ± 758 ng·h/mL
- eAUC20m–6h (AcHz) [2]: BLQ ^d
- % of prodrug remaining at 20 h, human plasma [3]: 47.5%
- eAUC20m–20h in human plasma, prodrug [3]: 1402 ± 957 ng·h/mL
- solubility at 24 h ([4]; Tris HCl buffer): 326 mg/mL
- logD [5]: -0.01
- chemical stability, DMSO: percentage of parent remaining [6]: 100.0%
- chemical stability, pH (7.6): percentage of parent remaining [7]: 100.0%
- plasma concentration of AcINH at 20 min [8]: BLQ
- plasma eAUC20m–120m (AcINH) [8]: BLQ ^d
